Where two headings read alike, the source gives them in different places.

Here are results for three compounds from patent publication US9107446B2, “Solubilizates of preservatives and method for producing the same” (AQUANOVA AG, priority 2006, dated 2015).

For data set [1] the following is noted: cited from earlier work.
The test system of a further data set is Saccharomyces cerevisae. To be noted: pH 6.2, room temperature; for Bacteria Count: 0.4 ml yeast solution.
In the next data set the test system is bacteria. To be noted: 500 mg added to nutrient solution with agar; about three weeks contact time.
The conditions of data set [2]: in water; cited from earlier work.

For `C/C=C/C=C/C(=O)O` [Sorbic Acid], the “Anion, dis.” value in data set [1] (pH Value 3) is recorded as 1.7%; in data set [1] (pH Value 4.0), 14.7%; in data set [1] (pH Value 5.0) it was 63%.

For `O=C(O)c1ccccc1` [Benzoic Acid], the “Anion, dis.” value is 6% in data set [1] (pH Value 3), 16.7% in data set [1] (pH Value 3.5), 38.7% in data set [1] (pH Value 4.0) and 86.5% in data set [1] (pH Value 5.0). For the same compound, the “Bacteria Count” value is 1,650,000/ml in the data set on Saccharomyces cerevisae (Benzoic Acid Concentration 10 ppm, After 3 days); 1,200,000/ml in the data set on Saccharomyces cerevisae (Benzoic Acid Concentration 10 ppm, After 7 days); 800,000/ml with Saccharomyces cerevisae (Benzoic Acid Concentration 10 ppm, After 15 days); 1,100,000/ml in the data set on Saccharomyces cerevisae (Benzoic Acid Concentration 10 ppm, After 22 days); 1,300,000/ml in the data set with Saccharomyces cerevisae (Benzoic Acid Concentration 10 ppm, After 29 days); 2,900/ml with Saccharomyces cerevisae (Benzoic Acid Concentration 10 ppm, Initial). Further, the “Bacteria Count” value is on record as 1,900,000/ml in the data set on Saccharomyces cerevisae (Benzoic Acid Concentration 50 ppm, After 3 days); 1,100,000/ml in the data set on Saccharomyces cerevisae (Benzoic Acid Concentration 50 ppm, After 7 days); 900,000/ml with Saccharomyces cerevisae (Benzoic Acid Concentration 50 ppm, After 15 days); 930,000/ml in the data set on Saccharomyces cerevisae (Benzoic Acid Concentration 50 ppm, After 22 days); 1,300,000/ml in the data set with Saccharomyces cerevisae (Benzoic Acid Concentration 50 ppm, After 29 days); 2,900/ml in the data set with Saccharomyces cerevisae (Benzoic Acid Concentration 50 ppm, Initial). The “Bacteria Count” value in the data set with Saccharomyces cerevisae (Benzoic Acid Concentration 100 ppm, After 3 days) is 670,000/ml; with Saccharomyces cerevisae (Benzoic Acid Concentration 100 ppm, After 7 days), 530,000/ml; in the data set on Saccharomyces cerevisae (Benzoic Acid Concentration 100 ppm, After 15 days), 600,000/ml; in the data set on Saccharomyces cerevisae (Benzoic Acid Concentration 100 ppm, After 22 days), 1,200,000/ml; with Saccharomyces cerevisae (Benzoic Acid Concentration 100 ppm, After 29 days), 900,000/ml; in the data set with Saccharomyces cerevisae (Benzoic Acid Concentration 100 ppm, Initial) it was 2,900/ml. The “Bacteria Count” value is 510,000/ml with Saccharomyces cerevisae (Benzoic Acid Concentration 200 ppm, After 3 days); 430,000/ml in the data set with Saccharomyces cerevisae (Benzoic Acid Concentration 200 ppm, After 7 days); 350,000/ml in the data set with Saccharomyces cerevisae (Benzoic Acid Concentration 200 ppm, After 15 days); 400,000/ml in the data set with Saccharomyces cerevisae (Benzoic Acid Concentration 200 ppm, After 22 days); 400,000/ml in the data set with Saccharomyces cerevisae (Benzoic Acid Concentration 200 ppm, After 29 days); 2,900/ml in the data set with Saccharomyces cerevisae (Benzoic Acid Concentration 200 ppm, Initial). For the same compound, the “Bacteria Count” value is given as 630,000/ml with Saccharomyces cerevisae (Benzoic Acid Concentration 300 ppm, After 3 days); 400,000/ml in the data set on Saccharomyces cerevisae (Benzoic Acid Concentration 300 ppm, After 7 days); 520,000/ml in the data set with Saccharomyces cerevisae (Benzoic Acid Concentration 300 ppm, After 15 days); 250,000/ml in the data set with Saccharomyces cerevisae (Benzoic Acid Concentration 300 ppm, After 22 days); 230,000/ml in the data set on Saccharomyces cerevisae (Benzoic Acid Concentration 300 ppm, After 29 days); 2,900/ml in the data set with Saccharomyces cerevisae (Benzoic Acid Concentration 300 ppm, Initial). For the same compound, the “Bacteria Count” value in the data set on Saccharomyces cerevisae (Benzoic Acid Concentration 500 ppm, After 3 days) is 700 mL⁻¹; in the data set with Saccharomyces cerevisae (Benzoic Acid Concentration 500 ppm, After 7 days), 55,000/ml; in the data set on Saccharomyces cerevisae (Benzoic Acid Concentration 500 ppm, After 15 days), 230,000/ml; with Saccharomyces cerevisae (Benzoic Acid Concentration 500 ppm, After 22 days), 120,000/ml; in the data set on Saccharomyces cerevisae (Benzoic Acid Concentration 500 ppm, After 29 days) it was 43,000/ml; in the data set with Saccharomyces cerevisae (Benzoic Acid Concentration 500 ppm, Initial), 2,900/ml. For the same compound, the “yeast growth (in words)” value in the data set with Saccharomyces cerevisae (benzoic acid concentration of 500 ppm, after 29 days of contact time) was “high yeast growth”.

For the compound `C/C=C/C=C/C(=O)[O-].[K+]` [Potassium Sorbate], the Bacteria Count in the data set with bacteria was 1.6×10^10. The “Solubility, Water” value in data set [2] was 138 g/100 g.
